In one test the test system is M-07e cells. Briefly: M-07e cellular assay (SCF-mediated cell proliferation). It counts as cell-based. As to conditions: Homo sapiens, 72 hours, CellTiter Glo. Here is the method:
M-07e cells (Creative Bioarray, CSC-C0249) which endogenously express human c-KIT were used to evaluate the effect of compounds on stem cell factor (SCF)-mediated cell proliferation. M-07e cells were cultured in growth media (RPMI+10% FBS+1% penicillin/streptomycin+10 ng/mL GM-CSF) at 5E5-1.5E6 cells/mL, replenishing media every 3-4 days. 1.5E4 cells were seeded per well in 384 well tissue culture treated plates in 20 μL assay media (RPMI+[…]+1% penicillin/streptomycin) without growth factor stimulation and incubated at 37° C. in a CO2 humidity-controlled incubator. Twenty-four hours later, three-fold serially diluted test compounds in media containing SCF (at the previously determined EC90) were added to the plated M-07e cells and incubated for an additional 72 hours. Cell viability was determined by adding 25 μL CellTiter Glo (Promega) to the cells and the luminescence was measured using a Perkin Elmer Envision plate reader. The EC50 was determined using GraphPad Prism. Percent cell growth was determined after normalizing the curve to the mean RLU high control (no compound control wells) at 100% and the mean RLU low control (no SCF control wells) at 0%.
For orientation: ATP-based viability assays read luminescence as a measure of living cells.

In test [1] the target is Recombinant human c-KIT kinase (Homo sapiens (Human), UniProt P10721). Briefly: c-KIT kinase chemiluminescence assay (ADP-Glo). In kind it is biochemical. The conditions noted are these: ATP 50 μM. In short, it runs like this: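 ADP formed by c-KIT on polyEY over 2 h at RT (after 30 min enzyme preincubation; Tris pH 7.5, MgCl2, BSA, DTT buffer) was detected by ADP-Glo luminescence. IC50 and Hill slope were fitted to control-normalized activity across compound concentrations.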
In general terms: ADP-Glo first removes unused ATP, then detects ADP through luciferase.

The values that follow come from US20250059174A1, “Pharmaceutical Compounds and Compositions as C-Kit Kinase Inhibitors” (Enanta Pharmaceuticals, Inc., priority 2023, published 2025).

Recombinant human c-KIT kinase, sequence (P10721 26-976): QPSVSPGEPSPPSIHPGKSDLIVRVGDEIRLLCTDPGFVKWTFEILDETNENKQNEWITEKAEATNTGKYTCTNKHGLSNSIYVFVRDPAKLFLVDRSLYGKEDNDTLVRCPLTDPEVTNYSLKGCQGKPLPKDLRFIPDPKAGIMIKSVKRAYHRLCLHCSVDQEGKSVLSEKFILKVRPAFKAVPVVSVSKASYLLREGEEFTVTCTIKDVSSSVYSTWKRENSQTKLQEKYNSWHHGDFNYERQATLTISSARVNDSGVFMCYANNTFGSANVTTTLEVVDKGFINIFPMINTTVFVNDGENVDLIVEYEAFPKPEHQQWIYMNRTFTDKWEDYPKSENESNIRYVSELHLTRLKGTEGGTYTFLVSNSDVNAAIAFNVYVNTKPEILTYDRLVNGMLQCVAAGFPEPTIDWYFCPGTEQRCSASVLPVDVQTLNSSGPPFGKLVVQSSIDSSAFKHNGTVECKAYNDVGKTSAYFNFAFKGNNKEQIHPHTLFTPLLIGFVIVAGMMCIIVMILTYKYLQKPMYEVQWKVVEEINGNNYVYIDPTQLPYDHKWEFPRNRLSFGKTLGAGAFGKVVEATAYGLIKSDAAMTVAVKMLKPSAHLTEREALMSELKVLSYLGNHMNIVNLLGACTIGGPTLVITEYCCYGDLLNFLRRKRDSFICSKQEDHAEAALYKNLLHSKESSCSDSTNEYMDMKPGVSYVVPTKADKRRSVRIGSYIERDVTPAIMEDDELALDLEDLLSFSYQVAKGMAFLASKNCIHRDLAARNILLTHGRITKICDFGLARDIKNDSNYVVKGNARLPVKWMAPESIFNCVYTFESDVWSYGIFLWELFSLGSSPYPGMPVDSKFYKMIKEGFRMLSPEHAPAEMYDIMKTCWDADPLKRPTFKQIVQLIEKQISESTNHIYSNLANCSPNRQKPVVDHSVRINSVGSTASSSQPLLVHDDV

As to `Cc1ccc(-c2noc([C@H]3C[C@@H]3F)n2)cc1NC(=O)c1cnn2ccc(-c3cn(CCO)nn3)cc12` [Example 110], in the test with M-07e cells, the EC50 (as a rule, the midpoint of the concentration-response curve) was less than 100 nM. For the same compound, the IC50 (in general, the midpoint of a concentration-inhibition curve) in test [1] is 100 to 1000 nM.
Consider `Cc1ccc(-c2noc([C@H]3C[C@@H]3F)n2)cc1NC(=O)c1cnn2ccc(-c3cn(C(F)F)nn3)cc12` [Example 111], for which, in the test with M-07e cells, the EC50 is less than 100 nM. In addition, in test [1], the IC50 was in the range of 100 to 1000 nM.
Consider `Cc1ccc(-c2noc([C@H]3C[C@@H]3F)n2)cc1NC(=O)c1cnn2cc(-c3cn(CC(F)(F)F)nn3)ccc12` [Example 112], for which, in the test on M-07e cells, the EC50 is less than 100 nM. Also, in test [1], the IC50 is less than 100 nM.
In turn, `Cc1ccc(-c2noc([C@H]3C[C@@H]3F)n2)cc1NC(=O)c1cnn2cc(-c3cn(C(F)(F)F)nn3)ccc12` [Example 113] returned an EC50 with M-07e cells of less than 100 nM. Also, in test [1], the IC50 was less than 100 nM.
In the test on M-07e cells, `Cc1ccc(-c2noc([C@H]3C[C@@H]3F)n2)cc1NC(=O)c1cnn2cc(-c3cn(C4CC4)nn3)ccc12` [Example 114] showed an EC50 of less than 100 nM. In addition, in test [1], the IC50 is less than 100 nM.
With `Cc1ccc(-c2noc([C@H]3C[C@@H]3F)n2)cc1NC(=O)c1cnn2cc(-c3cn(C4CC(F)(F)C4)nn3)ccc12` [Example 115], the EC50 in the test with M-07e cells is less than 100 nM. Moreover, in test [1], the IC50 was less than 100 nM.
With `COCCn1cc(-c2ccc3c(C(=O)Nc4cc(-c5noc([C@H]6C[C@@H]6F)n5)ccc4C)cnn3c2)nn1` [Example 116], the EC50 with M-07e cells is less than 100 nM. The 50% inhibitory concentration (IC50) in test [1] is less than 100 nM.
For `Cc1ccc(-c2noc([C@H]3C[C@@H]3F)n2)cc1NC(=O)c1cnn2cc(-c3cn(C[C@H](C)O)nn3)ccc12` [Example 117], in the test on M-07e cells, the EC50 is less than 100 nM. Further, the IC50 in test [1] was less than 100 nM.
As for `Cc1ccc(-c2noc([C@H]3C[C@@H]3F)n2)cc1NC(=O)c1cnn2cc(-c3cn(CC(C)(C)O)nn3)ccc12` [Example 118], the EC50 in the test with M-07e cells is less than 100 nM. Also, the half-inhibitory concentration (IC50) in test [1] was less than 100 nM.
As for `Cc1ccc(-c2noc([C@H]3C[C@@H]3F)n2)cc1NC(=O)c1cnn2cc(-c3cn(CC4(C)COC4)nn3)ccc12` [Example 119], the EC50 in the test on M-07e cells is less than 100 nM. Also, in test [1], the IC50 was less than 100 nM.
As for `Cc1ccc(-c2noc([C@H]3C[C@@H]3F)n2)cc1NC(=O)c1cnn2cc(-c3cnnn3CCO)ccc12` [Example 120], the EC50 with M-07e cells lay in the range of 100 to 1000 nM. In addition, the IC50 in test [1] lay in the range of 100 to 1000 nM.
In the test on M-07e cells, `Cc1ccc(-c2noc([C@H]3C[C@@H]3F)n2)cc1NC(=O)c1cnn2cc(-c3cnnn3CC(F)(F)F)ccc12` [Example 121] had an EC50 of more than 1000 nM. In addition, the IC50 in test [1] was more than 1000 nM.
The compound `Cc1ccc(-c2noc([C@H]3C[C@@H]3F)n2)cc1NC(=O)c1cnn2ccc(-c3cn(CC(C)(C)O)nn3)cc12` [Example 122] showed an EC50 in the test on M-07e cells of less than 100 nM. In test [1], the IC50 was less than 100 nM.
`Cc1ccc(-c2noc([C@H]3C[C@@H]3F)n2)cc1NC(=O)c1cnn2cc(-c3cn(C45CC(C4)C5)nn3)ccc12` [Example 123]: in the test on M-07e cells, the EC50 was less than 100 nM. Further, the IC50 in test [1] is 100 to 1000 nM.
For `Cc1ccc(-c2noc([C@H]3C[C@@H]3F)n2)cc1NC(=O)c1cnn2ccc(-c3cn(C45CC(F)(C4)C5)nn3)cc12` [Example 124] the same measures were less than 100 nM and less than 100 nM.
Taken in the same sequence, the figures for `Cc1ccc(-c2noc([C@H]3C[C@@H]3F)n2)cc1NC(=O)c1cnn2cc(-c3cn(C45CC(F)(C4)C5)nn3)ccc12` [Example 125] were less than 100 nM and 100 to 1000 nM.
Regarding `Cc1ccc(-c2noc([C@H]3C[C@@H]3F)n2)cc1NC(=O)c1cnn2ccc(-c3cn(C45CC(C(F)(F)F)(C4)C5)nn3)cc12` [Example 126], the EC50 in the test on M-07e cells was less than 100 nM. Besides, in test [1], the IC50 was less than 100 nM.
In turn, `Cc1ccc(-c2noc([C@H]3C[C@@H]3F)n2)cc1NC(=O)c1cnn2ccc(C#N)cc12` [Example 127] registered an EC50 with M-07e cells of 100 to 1000 nM. The IC50 in test [1] lay within 100 to 1000 nM.
In the test with M-07e cells, `Cc1ccc(-c2noc([C@H]3C[C@@H]3F)n2)cc1NC(=O)c1cnn2cc(C#N)ccc12` [Example 128] yielded an EC50 of 100 to 1000 nM. The 50% inhibitory concentration (IC50) in test [1] was more than 1000 nM.
Take `Cc1ccc(-c2noc([C@H]3C[C@@H]3F)n2)cc1NC(=O)c1cnn2ccc(-c3nn[nH]n3)cc12` [Example 129]: the EC50 with M-07e cells is more than 1000 nM. Further, the IC50 in test [1] was in the range of 100 to 1000 nM.
As for `Cc1ccc(-c2noc([C@H]3C[C@@H]3F)n2)cc1NC(=O)c1cnn2cc(-c3nn[nH]n3)ccc12` [Example 130], in the test with M-07e cells, the EC50 was more than 1000 nM. Further, the IC50 in test [1] was 100 to 1000 nM.
Turning to `Cc1ccc(-c2noc([C@H]3C[C@@H]3F)n2)cc1NC(=O)c1cnn2ccc(-c3nnn(C)n3)cc12` [Example 131], the EC50 in the test with M-07e cells was less than 100 nM. Further, the IC50 in test [1] lay in the range of 100 to 1000 nM.
For `CC#Cc1ccc2c(C(=O)Nc3cc(-c4noc([C@H]5C[C@@H]5F)n4)ccc3C)cnn2c1` [Example 132-1] the same measures were 100 to 1000 nM and less than 100 nM.
Taken in the same sequence, the figures for `CC#Cc1ccc2c(C(=O)Nc3cc(-c4noc([C@H]5C[C@@H]5F)n4)c(F)cc3C)cnn2c1` [Example 132-2] were 100 to 1000 nM and 100 to 1000 nM.
Taken in the same sequence, the figures for `Cc1ccc(-c2noc([C@H]3C[C@@H](OC(F)F)C3)n2)cc1NC(=O)c1cnn2cc(-c3cn(C(F)(F)C(=O)O)nn3)ccc12` [Example 132-3] were more than 1000 nM and less than 100 nM.
Turning to `Cc1ccc(-c2noc([C@H]3C[C@@H]3F)n2)cc1NC(=O)c1cnn2cc(-c3cn(C(F)(F)C(=O)O)nn3)ccc12` [Example 132-4], the EC50 in the test on M-07e cells was more than 1000 nM. For the same compound, the IC50 in test [1] was less than 100 nM.
For `Cc1ncc(-c2noc([C@H]3C[C@@H]3F)n2)cc1NC(=O)c1cnn2cc(-c3cn(C(F)F)nn3)ccc12` [Example 132-5] the same measures were less than 100 nM and 100 to 1000 nM.
For `Cc1ncc(-c2noc([C@H]3C[C@@H](OC(F)(F)F)C3)n2)cc1NC(=O)c1cnn2cc(-c3cn(C(F)F)nn3)ccc12` [Example 132-6] the same measures were less than 100 nM and 100 to 1000 nM.
For `Cc1ncc(-c2noc(C3CC(F)(F)C3)n2)cc1NC(=O)c1cnn2cc(-c3cn(C(F)F)nn3)ccc12` [Example 132-7] the same measures were 100 to 1000 nM and 100 to 1000 nM.
Consider `Cc1ncc(-c2noc([C@H]3C[C@@H](C(F)(F)F)C3)n2)cc1NC(=O)c1cnn2cc(-c3cn(C(F)F)nn3)ccc12` [Example 132-8], for which, in the test on M-07e cells, the EC50 is less than 100 nM. For the same compound, in test [1], the IC50 was less than 100 nM.
As to `Cc1ncc(-c2noc([C@H]3C[C@@H](OC(F)(F)F)C3)n2)cc1NC(=O)c1cnn2cc(-c3cn(CCO)nn3)ccc12` [Example 132-9], in the test with M-07e cells, the EC50 is less than 100 nM. Further, the IC50 in test [1] was less than 100 nM.
The compound `Cc1ncc(-c2noc([C@H]3C[C@@H](OC(F)(F)F)C3)n2)cc1NC(=O)c1cnn2cc(-c3cn(CC(C)(C)O)nn3)ccc12` [Example 132-10] showed an EC50 with M-07e cells of less than 100 nM. For the same compound, the IC50 in test [1] was 100 to 1000 nM.
Compound `Cc1ncc(-c2noc([C@H]3C[C@@H](OC(F)(F)F)C3)n2)cc1NC(=O)c1cnn2cc(-c3cn(CC4(C)COC4)nn3)ccc12` [Example 132-12] gave an EC50 in the test on M-07e cells of less than 100 nM. Further, the IC50 in test [1] was less than 100 nM.
As to `Cc1ccc(-c2ncc(C3CC3)cn2)cc1NC(=O)c1cnn2cc(-c3cn(C(F)F)nn3)ccc12` [Example 132-13], the EC50 in the test on M-07e cells is less than 100 nM. The IC50 in test [1] was less than 100 nM.
On to `Cc1ccc(-c2ncc(C3CC3)cn2)cc1NC(=O)c1cnn2cc(-c3cn(CC(C)(C)O)nn3)ccc12` [Example 132-14], for which the EC50 in the test on M-07e cells is less than 100 nM. Moreover, the IC50 in test [1] is less than 100 nM.
In the test with M-07e cells, `COC(=O)N1CC(c2nc(-c3ccc(C)c(NC(=O)c4cnn5cc(-c6cn(C(F)F)nn6)ccc45)c3)no2)C1` [Example 132-15] displayed an EC50 of less than 100 nM. Further, the IC50 in test [1] is less than 100 nM.
In the test with M-07e cells, `COC(=O)N1CC(c2nc(-c3cnc(C)c(NC(=O)c4cnn5cc(-c6cn(C(F)F)nn6)ccc45)c3)no2)C1` [Example 132-16] gave an EC50 of 100 to 1000 nM. In test [1], the IC50 was 100 to 1000 nM.
As for `COC(=O)N1CC(c2nc(-c3ccc(Cl)c(NC(=O)c4cnn5cc(-c6cn(C(F)F)nn6)ccc45)c3)no2)C1` [Example 132-17], the EC50 in the test on M-07e cells is less than 100 nM. Moreover, the IC50 in test [1] was less than 100 nM.
On to `Cc1ccc(-c2noc([C@H]3C[C@@H]3F)n2)cc1NC(=O)c1cnn2ccc(-c3nnn(CC(C)(C)O)n3)cc12` [Example 132], for which, in the test on M-07e cells, the EC50 is less than 100 nM. Besides, the IC50 in test [1] was less than 100 nM.
As for `Cc1ccc(-c2noc([C@H]3C[C@@H]3F)n2)cc1NC(=O)c1cnn2ccc(-c3ccn(C(F)F)n3)cc12` [Example 135], the EC50 in the test on M-07e cells was 100 to 1000 nM. Further, in test [1], the IC50 was less than 100 nM.
`Cc1ccc(-c2noc([C@H]3C[C@@H]3F)n2)cc1NC(=O)c1cnn2ccc(-c3cnn(C4COC4)c3)cc12` [Example 136] displayed an EC50 in the test on M-07e cells of less than 100 nM. In addition, the IC50 in test [1] is less than 100 nM.
Turning to `Cc1ccc(-c2noc([C@H]3C[C@@H]3F)n2)cc1NC(=O)c1cnn2ccc(-c3cnn(CCO)c3)cc12` [Example 138], the EC50 in the test on M-07e cells was less than 100 nM. Moreover, in test [1], the IC50 is less than 100 nM.
In the test with M-07e cells, `Cc1ccc(-c2noc([C@H]3C[C@@H]3F)n2)cc1NC(=O)c1cnn2ccc(-c3cnn(C(C)(C)CO)c3)cc12` [Example 140] displayed an EC50 of less than 100 nM. Also, the IC50 in test [1] is less than 100 nM.
